These results are taken from patent publication US20250073177A1, “LIPID NANOPARTICLES FOR OLIGONUCLEOTIDE DELIVERY” (ZIPHIUS NV, priority 2021, published 2025).

SMILES strings stand for the structures.

The nature of series [1]: saRNA encapsulation in LNP, Quant-IT RiboGreen assay. To be noted: LNP with firefly luciferase saRNA, RiboGreen with or without Triton X-100. It counts as physicochemical. On the procedure:
The saRNA loading in LNP formulations was quantified using a Quant-IT RiboGreen assay (Thermo Fisher Scientific, Waltham, Massachusetts, USA) as previously described. 14 samples were diluted tenfold in 1×Tris HCL-EDTA (TE) buffer (10 mM Tris-HCL, 1 mM EDTA, pH 7.5) with or without 2% (v/v) Triton X-100 (Sigma-Aldrich, Saint Louis, Missouri, USA). Standard solutions were also prepared in 1×TE with or without 2% (v/v) Triton X-100 to account for any variation in fluorescence. The assay was performed according to the manufacturer's protocol. Samples were loaded on a black 96-well plate and analysed for fluorescence on a microplate reader (Tecan Infinite® 200 PRO) at an excitation of 485 nm and emission at 528 nm. Encapsulation efficiency was calculated between 80-100%. See Table 3 below for the results obtained.

Series [2] is described as follows: LNP particle size, polydispersity index and charge by Zeta Sizer. It counts as physicochemical. To be noted: LNP lipid:DOPE:Cholesterol:DMG-PEG 35:20:43.5:1.5, N/P about 40/1, firefly luciferase saRNA. On the procedure: Cationic lipids, DOPE, Cholesterol and DMG-PEG lipid were solubilized in ethanol or DMSO at a molar ratio of 35:20:43.5:1.5 and a concentration of 100:25:20:25 μg/μL for C12-200 or 170:25:20:25 μg/μL for the comparator lipids. Lipid nanoparticles (LNP) were prepared by targeting an N/P ratio of approximately 40/1 with saRNA. Briefly, the firefly luciferase saRNA of approximately 9659 nucleotides was diluted to 0.5 mg/mL in 5 mM citrate buffer, pH 4.5. Microfluidic mixer (Ignite from Precision Nanosystems, California, USA) was used to mix the lipid solution with the saRNA aqueous solution at a ratio of about 1:3 (vol/vol) with total flow rates above 10 ml/min. The ethanol was then removed, and the external buffer replaced with 10 mM TRIS-HCL, PH 7.4, by dialysis. Finally, the lipid nanoparticles were filtered through a 0.2 μm pore sterile filter. Lipid nanoparticle particle size was 50-150 nm diameter and polydispersity index (PI) of 0.1-0.4 as determined by Zeta Sizer (Malvern Panalytical, UK). The charge of the formulation was also measured by Zeta Sizer and ranged between 20 to −20 mV.

Series [3] can be described thus: Body weight of mice after injection of LNP-formulated luciferase saRNA. To be noted: 1 μg luciferase saRNA in LNP. In kind it is in vivo. The protocol:
(§1) Female SWISS mice (6 weeks old) were purchased from Janvier Laboratories (Paris, France) and kept in individually ventilated cages with access to food and water ad libitum. Mice were anesthetized with isoflurane (Zoetis, Louvain-La-Neuve, Belgium) (5% for induction and 2% for maintenance) and intramuscularly injected with a total of 1 μg in 100 μL Tris-HCL (50 μL per leg) LNP-formulated luciferase saRNA (for each group n=7). The expression of the luciferase induced bioluminescence was measured via non-invasive In vivo bioluminescent imaging (In vivo Imaging System (IVIS) Lumina III, Perkin Elmer, Waltham, Massachusetts, USA), 10 minutes after subcutaneous injection of 200 μL of D-luciferin (GoldBio, Saint Louis, Missouri, USA, #LUCK-1G) were measured in day 0 (before injection), day 1, day 3, day 5, day 7, day 10, day 15 and day 20.
See Tables 4 and FIG. 1 for the results showing higher expression of the saRNA compared to prior art compounds at day 15 onwards when administered in LNPs comprising compounds of the invention. Table 5 supports good tolerability of the compounds of the invention.

The test system of another series is Female SWISS mice. Description: In vivo bioluminescent imaging of LNP-formulated luciferase saRNA expression. Particulars: 1 μg luciferase saRNA in LNP. The protocol: as §1
Setting [4] is: Day 0 (before injection), intramuscular.

`CCCCCCCCCCCCCCOC(=O)CCN(CCC(=O)OCCCCCCCCCCCCCC)CCN1CCN(CCN(CCC(=O)OCCCCCCCCCCCCCC)CCC(=O)OCCCCCCCCCCCCCC)CC1` [Comparator 1, reference compound] gave an Encapsulation in series [1] of 99.03%. Besides, the “Polydispersity Index (PI)” value in series [2] is 0.16. The Z-average in series [2] is reported as 70.96 nm. In series [2], this compound returned a Zetapotential of 9.07 mV. In addition, the Weight in series [3] (setting [4]) was found to be 26.56 g; in series [3] (Day 1, intramuscular), 25.99 g; in series [3] (Day 3, intramuscular), 27.21 g; in series [3] (Day 5, intramuscular) it was 27.59 g; in series [3] (Day 7, intramuscular), 27.09 g; in series [3] (Day 10, intramuscular), 27.17 g. Besides, the Weight is listed as 29.43 g in series [3] (Day 15, intramuscular) and 30.11 g in series [3] (Day 20, intramuscular).
`CCCCCCC(CCCC)C(=O)OCCCCN(CCCCOC(=O)C(CCCC)CCCCCC)CCN1CCN(CCOC(=O)C(CCCC)CCCCCC)CC1` (stereo not shown) [Compound 8-41, ((2-(4-(2-((2-butyloctanoyl)oxy)ethyl)piperazin-1-yl)ethyl)azanediyl)bis(butane-4,1-diyl) bis(2-butyloctanoate)] came in with an Encapsulation in series [1] of 99.04%. Moreover, the “Bioluminescence expression of LNPs” value is listed as 5.33E+04 in the series with Female SWISS mice (setting [4]); 5.42E+07 in the series on Female SWISS mice (Day 1, intramuscular); 7.43E+08 in the series with Female SWISS mice (Day 3, intramuscular); 6.54E+08 in the series with Female SWISS mice (Day 5, intramuscular); 4.67E+08 in the series on Female SWISS mice (Day 7, intramuscular); 9.17E+06 in the series on Female SWISS mice (Day 10, intramuscular). Besides, the “Bioluminescence expression of LNPs” value was found to be 1.88E+06 with Female SWISS mice (Day 15, intramuscular) and 1.88E+06 in the series with Female SWISS mice (Day 20, intramuscular). In addition, the “Polydispersity Index (PI)” value in series [2] came out at 0.23. For the same compound, the Z-average in series [2] is 81.44 nm. Moreover, the Zetapotential in series [2] is recorded as −20.01 mV. Besides, the Weight in series [3] (setting [4]) was found to be 28.03 g; in series [3] (Day 1, intramuscular), 27.31 g; in series [3] (Day 3, intramuscular), 28.49 g; in series [3] (Day 5, intramuscular) it was 29.04 g; in series [3] (Day 7, intramuscular) it was 28.69 g; in series [3] (Day 10, intramuscular), 29.24 g. In addition, the Weight in series [3] (Day 15, intramuscular) was 30.24 g; in series [3] (Day 20, intramuscular), 31.19 g.
Consider `CCCCCCCCCCC(O)CN(CCN1CCN(CCN(CC(O)CCCCCCCCCC)CC(O)CCCCCCCCCC)CC1)CCN(CC(O)CCCCCCCCCC)CC(O)CCCCCCCCCC` (stereo not shown) [Compound C12-200, 1,1′-((2-(4-(2-((2-(bis (2-hydroxydodecyl)amino)ethyl) (2-hydroxydodecyl)amino)ethyl)piperazin-1-yl)ethyl)azanediyl)bis (dodecan-2-ol), reference compound], for which the Encapsulation in series [1] amounted to 100.49%. The “Polydispersity Index (PI)” value in series [2] is reported as 0.10. The Z-average in series [2] was 81.42 nm. In series [2], this compound showed a Zetapotential of 2.78 mV. The Weight is given as 28.61 g in series [3] (setting [4]); 27.17 g in series [3] (Day 1, intramuscular); 28.62 g in series [3] (Day 3, intramuscular); 28.98 g in series [3] (Day 5, intramuscular); 28.97 g in series [3] (Day 7, intramuscular); 29.23 g in series [3] (Day 10, intramuscular). The Weight in series [3] (Day 15, intramuscular) is on record as 30.16 g; in series [3] (Day 20, intramuscular), 31.23 g.
In series [1], `CCCCCCC(CCCC)C(=O)NCCN1CCN(CCN(CCCCOC(=O)C(CCCC)CCCCCC)CCCCOC(=O)C(CCCC)CCCCCC)CC1` (stereo not shown) [Compound 8-27, ((2-(4-(2-(2-butyloctanamido)ethyl)piperazin-1-yl)ethyl)azanediyl)bis(butane-4,1-diyl) bis(2-butyloctanoate)] showed an Encapsulation of 98.64%. The “Bioluminescence expression of LNPs” value in the series with Female SWISS mice (setting [4]) is listed as 8.55E+04; in the series with Female SWISS mice (Day 1, intramuscular), 1.40E+08; in the series with Female SWISS mice (Day 3, intramuscular), 9.90E+08; with Female SWISS mice (Day 5, intramuscular), 7.71E+08; in the series with Female SWISS mice (Day 7, intramuscular) it was 2.35E+08; with Female SWISS mice (Day 10, intramuscular), 6.86E+06. Further, the “Bioluminescence expression of LNPs” value in the series on Female SWISS mice (Day 15, intramuscular) was 7.44E+05; in the series with Female SWISS mice (Day 20, intramuscular) it was 8.29E+05. Moreover, the “Polydispersity Index (PI)” value in series [2] is reported as 0.16. Moreover, in series [2], the Z-average came to 85.72 nm. Also, the Zetapotential in series [2] is reported as −12.65 mV. In addition, the Weight in series [3] (setting [4]) was determined as 27.07 g; in series [3] (Day 1, intramuscular) it was 26.01 g; in series [3] (Day 3, intramuscular), 27.57 g; in series [3] (Day 5, intramuscular), 28.86 g; in series [3] (Day 7, intramuscular), 28.40 g; in series [3] (Day 10, intramuscular), 28.67 g. For the same compound, the Weight was found to be 29.44 g in series [3] (Day 15, intramuscular) and 30.57 g in series [3] (Day 20, intramuscular).
